Measured values published in ChEMBL document CHEMBL1933067, “The design, synthesis and in vitro immunosuppressive evaluation of novel isobenzofuran derivatives” (Bioorg Med Chem Lett, 2012).

Test system: T-cell
Test: Immunosuppressive activity in mouse T-cells assessed as inhibition of concanavalin A-induced proliferation
Assay type: functional, cell-based

How did the IC50 turn out when `O=C(/C=C/c1ccccc1)Nc1ccc2c(c1)COC2=O` was run?
The IC50 was 7.24 µM.

How did the IC50 turn out when `O=C(/C=C/c1ccco1)Nc1ccc2c(c1)COC2=O` was run?
Its IC50 is 9 µM.

`O=C(/C=C/c1ccccn1)Nc1ccc2c(c1)COC2=O` was tested. Which IC50 did it give?
Its IC50 is 17.9 µM.

Which IC50 does the source give for `COc1ccc(/C=C/C(=O)Nc2ccc3c(c2)COC3=O)cc1OC` here?
The IC50 was 0.029 µM.

With `O=C(/C=C/c1cccc(F)c1)Nc1ccc2c(c1)COC2=O` as the compound, how does the IC50 read?
Its IC50 is 0.034 µM.

With `O=C(/C=C/c1ccccc1Br)Nc1ccc2c(c1)COC2=O` as the compound, how does the IC50 read?
Its IC50 is greater than 100 µM.

How did the IC50 turn out when `N#Cc1ccc(/C=C/C(=O)Nc2ccc3c(c2)COC3=O)cc1` was run?
Its IC50 is 43.1 µM.

With `CC(=O)Oc1cccc(/C=C/C(=O)Nc2ccc3c(c2)COC3=O)c1` as the compound, how does the IC50 read?
Its IC50 is 0.03 µM.

For `COc1cc(/C=C/C(=O)Nc2ccc3c(c2)COC3=O)cc(OC)c1OC`, which IC50 is on record?
Its IC50 is 1.73 µM.

Which IC50 does the source give for `COc1ccccc1/C=C/C(=O)Nc1ccc2c(c1)COC2=O` here?
The IC50 was 0.039 µM.

For `COc1cc(/C=C/C(=O)Nc2ccc3c(c2)COC3=O)ccc1OC(C)=O`, which IC50 is on record?
The IC50 was 0.136 µM.

How did the IC50 turn out when `CC(C)c1ccc(/C=C/C(=O)Nc2ccc3c(c2)COC3=O)cc1` was run?
The IC50 was 1.59 µM.

With `CC(C)(C)c1ccc(/C=C/C(=O)Nc2ccc3c(c2)COC3=O)cc1` as the compound, how does the IC50 read?
The IC50 was 0.72 µM.

How did the IC50 turn out when `CC(=O)Oc1ccc(/C=C/C(=O)Nc2ccc3c(c2)COC3=O)cc1OC(C)=O` was run?
The IC50 was 0.18 µM.

With `COc1cc(CCC(=O)Nc2ccc3c(c2)COC3=O)cc(OC)c1OC` as the compound, how does the IC50 read?
Its IC50 is 7.74 µM.

Which IC50 does the source give for `O=C(Nc1ccccc1)Nc1ccc2c(c1)COC2=O` here?
The IC50 was 7.09 µM.

For `CN(C(=O)Nc1ccc2c(c1)COC2=O)c1ccccc1`, which IC50 is on record?
The IC50 was greater than 100 µM.

How did the IC50 turn out when `Cc1ccccc1NC(=O)Nc1ccc2c(c1)COC2=O` was run?
Its IC50 is 0.9 µM.

For `Cc1cccc(NC(=O)Nc2ccc3c(c2)COC3=O)c1`, which IC50 is on record?
The IC50 was 2.26 µM.

With `Cc1ccc(NC(=O)Nc2ccc3c(c2)COC3=O)cc1` as the compound, how does the IC50 read?
The IC50 was 2.67 µM.

Which IC50 does the source give for `O=C(Nc1ccc(F)cc1)Nc1ccc2c(c1)COC2=O` here?
Its IC50 is 4.19 µM.

Which IC50 does the source give for `O=C(Nc1ccc(Cl)cc1)Nc1ccc2c(c1)COC2=O` here?
Its IC50 is 2.45 µM.

`O=C(Nc1ccc(I)cc1)Nc1ccc2c(c1)COC2=O` was tested. Which IC50 did it give?
Its IC50 is 1.37 µM.

Which IC50 does the source give for `O=C(Nc1ccc2c(c1)COC2=O)NC1CCCCC1` here?
The IC50 was 12.7 µM.

For `CCCNC(=O)Nc1ccc2c(c1)COC2=O`, which IC50 is on record?
Its IC50 is 58.1 µM.

With `O=C(Nc1ccccc1)C(=O)Nc1ccc2c(c1)COC2=O` as the compound, how does the IC50 read?
The IC50 was 36.1 µM.

With `CN(Cc1ccccc1)C(=O)C(=O)Nc1ccc2c(c1)COC2=O` as the compound, how does the IC50 read?
Its IC50 is 14.3 µM.

Which IC50 does the source give for `CC(C)(C)NC(=O)C(=O)Nc1ccc2c(c1)COC2=O` here?
Its IC50 is 3.4 µM.

Which IC50 does the source give for `O=C(Nc1ccc(F)cc1)C(=O)Nc1ccc2c(c1)COC2=O` here?
Its IC50 is 0.57 µM.

For `O=C(Nc1ccc(Cl)cc1)C(=O)Nc1ccc2c(c1)COC2=O`, which IC50 is on record?
Its IC50 is 2.24 µM.

Which IC50 does the source give for `O=C(Nc1ccc(O)cc1)C(=O)Nc1ccc2c(c1)COC2=O` here?
The IC50 was 5.03 µM.

Which IC50 does the source give for `COc1ccc(NC(=O)C(=O)Nc2ccc3c(c2)COC3=O)cc1` here?
The IC50 was 153 µM.

For `Cc1ccccc1NC(=O)C(=O)Nc1ccc2c(c1)COC2=O`, which IC50 is on record?
The IC50 was 5.51 µM.

With `COc1cc(CN(C)C(=O)C(=O)Nc2ccc3c(c2)COC3=O)cc(OC)c1OC` as the compound, how does the IC50 read?
The IC50 was 3.28 µM.

`O=C(Nc1cccc([N+](=O)[O-])c1)C(=O)Nc1ccc2c(c1)COC2=O` was tested. Which IC50 did it give?
Its IC50 is 1.82 µM.

How did the IC50 turn out when `COc1c(C)c2c(c(O)c1C/C=C(\C)CCC(=O)O)C(=O)OC2` [MYCOPHENOLIC ACID] was run?
The IC50 was 0.28 µM.

Target: Inosine-5'-monophosphate dehydrogenase 2 (Homo sapiens, UniProt P12268)
Test: Inhibition of IMPDH2

For `COc1ccc(/C=C/C(=O)Nc2ccc3c(c2)COC3=O)cc1OC`, which IC50 is on record?
Its IC50 is 2.1 µM.

How did the IC50 turn out when `O=C(/C=C/c1cccc(F)c1)Nc1ccc2c(c1)COC2=O` was run?
Its IC50 is 4.5 µM.

How did the IC50 turn out when `CC(=O)Oc1cccc(/C=C/C(=O)Nc2ccc3c(c2)COC3=O)c1` was run?
The IC50 was 8.8 µM.

How did the IC50 turn out when `CC(C)(C)c1ccc(/C=C/C(=O)Nc2ccc3c(c2)COC3=O)cc1` was run?
The IC50 was 3.2 µM.

Which IC50 does the source give for `CC(=O)Oc1ccc(/C=C/C(=O)Nc2ccc3c(c2)COC3=O)cc1OC(C)=O` here?
Its IC50 is 2.8 µM.
